Holding throughout (test): Bacterial growth minimal inhibitory concentration (microdilution, cation-adjusted Mueller-Hinton Broth)
What all share (assay type): cell-based
For orientation: In broth dilution the organism is exposed to a series of concentrations in liquid medium.

One assay has as its system P. aeruginosa ATCC27853. Conditions: for MIC: Pseudomonas aeruginosa, ATCC27853, quinolone-sensitive strain, read-out: MIC for P. aeruginosa ATCC27853. Here is the method: (§1) Minimal Inhibitory Concentrations (MICs; mg/L) were determined in cation-adjusted Mueller-Hinton Broth by a microdilution method following the description given in “Methods for Dilution Antimicrobial Susceptibility Tests for Bacteria that Grow Aerobically”, Approved standard, 7th ed., a Clinical and Laboratory Standards Institute (CLSI) Document M7-A7, Wayne, Pa., USA (2006).
(§2) All Example compounds were tested against several Gram-positive and Gram-negative bacteria. […] K. pneumoniae A-651 is a multiply-resistant strain (in particular quinolone-resistant), while E. coli ATCC25922 and P. aeruginosa ATCC27853 are quinolone-sensitive strains.

Another assay has as its system E. coli ATCC25922. Conditions: quinolone-sensitive strain; for MIC: Escherichia coli, ATCC25922, read-out: MIC for E. coli ATCC25922. The method, then:
as §1, §2

Another assay deals with K. pneumoniae A-651. Conditions: multiply-resistant strain (in particular quinolone-resistant); for MIC: Klebsiella pneumoniae, A651, read-out: MIC for K. Pneumoniae A-651. The method, then: as §1, §2

≈ marks a conversion by molar mass, not a printed value.

As usually defined, the MIC is the smallest concentration in the dilution series that meets the test's criterion for growth inhibition. Regarding `CC(CCN1Cc2cc(-c3ccc(OCCO)cc3)cn2C1=O)(C(=O)NO)S(C)(=O)=O` (racemic) [RE7, (RS)—N-hydroxy-4-(6-(4-(2-hydroxyethoxy)phenyl)-3-oxo-1H-pyrrolo[1,2-c]imidazol-2(3H)-yl)-2-methyl-2-(methylsulfonyl)butanamide], the MIC in the assay with P. aeruginosa ATCC27853 worked out at 8 µg/mL (≈ 17.7 µM); with E. coli ATCC25922, 4 µg/mL (≈ 8.86 µM); in the assay on K. pneumoniae A-651, 8 µg/mL (≈ 17.7 µM).

With `C[C@@](CCN1Cc2cc(C#Cc3ccc([C@H]4C[C@@H]4CO)cc3)cn2C1=O)(C(=O)NO)S(C)(=O)=O` [Example 6, (R)-N-hydroxy-4-(6-((4-((1S,2S)-2-(hydroxymethyl)cyclopropyl)phenyl)ethynyl)-3-oxo-1H-pyrrolo[1,2-c]imidazol-2(3H)-yl)-2-methyl-2-(methylsulfonyl)butanamide], the MIC in the assay on P. aeruginosa ATCC27853 came to 0.5 µg/mL (≈ 1.03 µM); in the assay with E. coli ATCC25922, 0.031 µg/mL (≈ 0.0638 µM); with K. pneumoniae A-651, 0.125 µg/mL (≈ 0.257 µM).

On to `C[C@]1(CO)C[C@@H]1C#CC#Cc1cc2n(c1)C(=O)N(CC[C@](C)(C(=O)NO)S(C)(=O)=O)C2` [Example 61, (R)-N-hydroxy-4-(6-(((1R,2S)-2-(hydroxymethyl)-2-methylcyclopropyl)buta-1,3-diyn-1-yl)-3-oxo-1H-pyrrolo[1,2-c]imidazol-2(3H)-yl)-2-methyl-2-(methylsulfonyl)butanamide], for which the minimal inhibitory concentration (MIC) in the assay with P. aeruginosa ATCC27853, in the assay with E. coli ATCC25922 and in the assay on K. pneumoniae A-651 was 0.25 µg/mL (≈ 0.559 µM) each time.

For `COc1ccc(-c2cc3n(c2)C(=O)N(CC[C@](C)(C(=O)NO)S(C)(=O)=O)C3)c(Cl)c1` [Example 52, (R)-4-(6-(2-chloro-4-methoxyphenyl)-3-oxo-1H-pyrrolo[1,2-c]imidazol-2(3H)-yl)-N-hydroxy-2-methyl-2-(methylsulfonyl)butanamide], the MIC in the assay on P. aeruginosa ATCC27853 is 2 µg/mL (≈ 4.39 µM); in the assay on E. coli ATCC25922, at most 0.063 µg/mL; with K. pneumoniae A-651, at most 0.063 µg/mL.

Take `C[C@@](CCN1Cc2cc(C#Cc3ccc(NC(=O)CO)cc3)cn2C1=O)(C(=O)NO)S(C)(=O)=O` [Example 71, (R)-N-hydroxy-4-(6-((4-(2-hydroxyacetamido)phenyl)ethynyl)-3-oxo-1H-pyrrolo[1,2-c]imidazol-2(3H)-yl)-2-methyl-2-(methylsulfonyl)butanamide]: the results for the MIC in the assay on P. aeruginosa ATCC27853, with E. coli ATCC25922 and in the assay on K. pneumoniae A-651 were 1 µg/mL (≈ 2.05 µM), 0.25 µg/mL (≈ 0.512 µM) and 1 µg/mL (≈ 2.05 µM), respectively.

Regarding `C[C@@](CCN1Cc2cc(C#CC#C[C@@H]3C[C@@]3(F)CO)cn2C1=O)(C(=O)NO)S(C)(=O)=O` (single isomer, unassigned) [Example 79], the results for the MIC with P. aeruginosa ATCC27853, with E. coli ATCC25922 and in the assay with K. pneumoniae A-651 were 0.5 µg/mL (≈ 1.11 µM), 0.25 µg/mL (≈ 0.554 µM) and 0.25 µg/mL (≈ 0.554 µM), respectively.

Take `C[C@@](CCN1Cc2cc(C#CC#CCC3(O)COC3)cn2C1=O)(C(=O)NO)S(C)(=O)=O` [Example 63, (R)-N-hydroxy-4-(6-(5-(3-hydroxyoxetan-3-yl)penta-1,3-diyn-1-yl)-3-oxo-1H-pyrrolo[1,2-c]imidazol-2(3H)-yl)-2-methyl-2-(methylsulfonyl)butanamide]: the minimal inhibitory concentration (MIC) was determined as 4 µg/mL (≈ 8.9 µM) with P. aeruginosa ATCC27853, 2 µg/mL (≈ 4.45 µM) in the assay on E. coli ATCC25922 and 4 µg/mL (≈ 8.9 µM) in the assay on K. pneumoniae A-651.

As for `C[C@@](CCN1Cc2cc(C#CC#CC3(CO)CCC3)cn2C1=O)(C(=O)NO)S(C)(=O)=O` [Example 56, (R)-N-hydroxy-4-(6-((1-(hydroxymethyl)cyclobutyl)buta-1,3-diyn-1-yl)-3-oxo-1H-pyrrolo[1,2-c]imidazol-2(3H)-yl)-2-methyl-2-(methylsulfonyl)butanamide], the MIC in the assay on P. aeruginosa ATCC27853 was 2 µg/mL (≈ 4.47 µM); with E. coli ATCC25922 it was 0.25 µg/mL (≈ 0.559 µM); with K. pneumoniae A-651 it was 1 µg/mL (≈ 2.23 µM).

Turning to `C[C@@](CCN1Cc2cc(C#Cc3ccc(N4CCN(CCO)C4=O)cc3)cn2C1=O)(C(=O)NO)S(C)(=O)=O` [Example 20, (R)-N-hydroxy-4-(6-((4-(3-(2-hydroxyethyl)-2-oxoimidazolidin-1-yl)phenyl)ethynyl)-3-oxo-1H-pyrrolo[1,2-c]imidazol-2(3H)-yl)-2-methyl-2-(methylsulfonyl)butanamide], the figures for the MIC in the assay on P. aeruginosa ATCC27853, in the assay on E. coli ATCC25922 and in the assay on K. pneumoniae A-651 were 4 µg/mL (≈ 7.36 µM), 1 µg/mL (≈ 1.84 µM) and 4 µg/mL (≈ 7.36 µM), respectively.

As to `COCCOc1ccc(-c2cc3n(c2)C(=O)N(CCC(C)(C(=O)NO)S(C)(=O)=O)C3)cc1` (racemic) [RE8, (RS)—N-hydroxy-4-(6-(4-(2-methoxyethoxy)phenyl)-3-oxo-1H-pyrrolo[1,2-c]imidazol-2(3H)-yl)-2-methyl-2-(methylsulfonyl)butanamide], the MIC with P. aeruginosa ATCC27853 was 8 µg/mL (≈ 17.2 µM); with E. coli ATCC25922, 2 µg/mL (≈ 4.3 µM); in the assay on K. pneumoniae A-651, 2 µg/mL (≈ 4.3 µM).

In the case of `CC(C)(O)C#Cc1ccc(-c2cc3n(c2)C(=O)N(CCC(C)(C(=O)NO)S(C)(=O)=O)C3)cc1` (racemic) [RE4, (RS)—N-hydroxy-4-(6-(4-(3-hydroxy-3-methylbut-1-yn-1-yl)phenyl)-3-oxo-1H-pyrrolo[1,2-c]imidazol-2(3H)-yl)-2-methyl-2-(methylsulfonyl)butanamide], the results for the MIC with P. aeruginosa ATCC27853, with E. coli ATCC25922 and in the assay with K. pneumoniae A-651 were 2 µg/mL (≈ 4.22 µM), 0.25 µg/mL (≈ 0.528 µM) and 0.5 µg/mL (≈ 1.06 µM), respectively.

Take `C[C@@](CCN1Cc2cc(C#Cc3ccc([C@@H]4C[C@H]4CO)cc3)cn2C1=O)(C(=O)NO)S(C)(=O)=O` [Example 5, (R)-N-hydroxy-4-(6-((4-((1R,2R)-2-(hydroxymethyl)cyclopropyl)phenyl)ethynyl)-3-oxo-1H-pyrrolo[1,2-c]imidazol-2(3H)-yl)-2-methyl-2-(methylsulfonyl)butanamide]: the MIC was 0.5 µg/mL (≈ 1.03 µM) in the assay on P. aeruginosa ATCC27853, at most 0.063 µg/mL in the assay with E. coli ATCC25922 and 0.125 µg/mL (≈ 0.257 µM) in the assay on K. pneumoniae A-651.

Consider `C[C@@](CCN1Cc2cc(C#CC#C[C@@H]3C[C@@H](O)[C@@H](O)C3)cn2C1=O)(C(=O)NO)S(C)(=O)=O` [Example 33, (R)-4-(6-(((1S,3R,4S)-3,4-dihydroxycyclopentyl)buta-1,3-diyn-1-yl)-3-oxo-1H-pyrrolo[1,2-c]imidazol-2(3H)-yl)-N-hydroxy-2-methyl-2-(methylsulfonyl)butanamide], for which the “MIC for P. aeruginosa ATCC27853” value in the assay with P. aeruginosa ATCC27853 (quinolone-sensitive strain) is listed as 1 mg/L. The “MIC for E. coli ATCC25922” value with E. coli ATCC25922 is on record as 0.5 mg/L. The “MIC for K. Pneumoniae A-651” value with K. pneumoniae A-651 is 0.5 mg/L.

On to `C[C@@](CCN1Cc2cc(C#Cc3ccc(CN4CCC(O)CC4)cc3)cn2C1=O)(C(=O)NO)S(C)(=O)=O` [Example 80, (R)-N-hydroxy-4-(6-((4-((4-hydroxypiperidin-1-yl)methyl)phenyl)ethynyl)-3-oxo-1H-pyrrolo[1,2-c]imidazol-2(3H)-yl)-2-methyl-2-(methylsulfonyl)butanamide], for which the MIC in the assay on P. aeruginosa ATCC27853 turned out to be 1 µg/mL (≈ 1.89 µM); in the assay on E. coli ATCC25922, 1 µg/mL (≈ 1.89 µM); with K. pneumoniae A-651, 2 µg/mL (≈ 3.78 µM).

Take `C[C@@](CCN1Cc2cc(C#Cc3ccc(CN4CCOCC4)cc3)cn2C1=O)(C(=O)NO)S(C)(=O)=O` [Example 25, (R)-N-hydroxy-2-methyl-2-(methylsulfonyl)-4-(6-((4-(morpholinomethyl)phenyl)ethynyl)-3-oxo-1H-pyrrolo[1,2-c]imidazol-2(3H)-yl)butanamide]: the figures for the MIC with P. aeruginosa ATCC27853, with E. coli ATCC25922 and in the assay with K. pneumoniae A-651 were 1 µg/mL (≈ 1.94 µM), 0.125 µg/mL (≈ 0.243 µM) and 0.25 µg/mL (≈ 0.486 µM), respectively.

As for `C[C@@](CCN1Cc2cc(C#Cc3ccc([C@H](O)CO)cc3)cn2C1=O)(C(=O)NO)S(C)(=O)=O` [Example 18, (R)-4-(6-((4-((S)-1,2-dihydroxyethyl)phenyl)ethynyl)-3-oxo-1H-pyrrolo[1,2-c]imidazol-2(3H)-yl)-N-hydroxy-2-methyl-2-(methylsulfonyl)butanamide], the values for the MIC in the assay with P. aeruginosa ATCC27853, in the assay on E. coli ATCC25922 and in the assay with K. pneumoniae A-651 were 1 µg/mL (≈ 2.1 µM), 0.5 µg/mL (≈ 1.05 µM) and 1 µg/mL (≈ 2.1 µM), respectively.

As for `C[C@@](CCN1Cc2cc(C#Cc3ccc(C4(CO)CC4)cn3)cn2C1=O)(C(=O)NO)S(C)(=O)=O.O=CO` [Example 24, (R)-N-hydroxy-4-(6-((5-(1-(hydroxymethyl)cyclopropyl)pyridin-2-yl)ethynyl)-3-oxo-1H-pyrrolo[1,2-c]imidazol-2(3H)-yl)-2-methyl-2-(methylsulfonyl)butanamide formate], the MIC was 8 µg/mL with P. aeruginosa ATCC27853, 8 µg/mL in the assay with E. coli ATCC25922 and 32 µg/mL in the assay with K. pneumoniae A-651.

Consider `C[C@@](CCN1Cc2cc(C#CC#CC34CC(CO)(C3)C4)cn2C1=O)(C(=O)NO)S(C)(=O)=O` [Example 30, (R)-N-hydroxy-4-(6-(4-(3-(hydroxymethyl)bicyclo[1.1.1]pentan-1-yl)buta-1,3-diyn-1-yl)-3-oxo-1H-pyrrolo[1,2-c]imidazol-2(3H)-yl)-2-methyl-2-(methylsulfonyl)butanamide], for which the minimum inhibitory concentration (MIC) with P. aeruginosa ATCC27853 was found to be 0.5 µg/mL (≈ 1.09 µM); in the assay on E. coli ATCC25922, 0.125 µg/mL (≈ 0.272 µM); with K. pneumoniae A-651 it was 0.25 µg/mL (≈ 0.544 µM).

`C[C@@](CCN1Cc2cc(C#CC#C[C@@]3(F)C[C@@H]3CO)cn2C1=O)(C(=O)NO)S(C)(=O)=O` (relative stereo) [Example 66, (R)-4-(6-(((1R*,2R*)-1-fluoro-2-(hydroxymethyl)cyclopropyl)buta-1,3-diyn-1-yl)-3-oxo-1H-pyrrolo[1,2-c]imidazol-2(3H)-yl)-N-hydroxy-2-methyl-2-(methylsulfonyl)butanamide]: the MIC is 1 µg/mL (≈ 2.21 µM) in the assay with P. aeruginosa ATCC27853, 0.125 µg/mL (≈ 0.277 µM) in the assay on E. coli ATCC25922 and 0.5 µg/mL (≈ 1.11 µM) with K. pneumoniae A-651.

On to `C[C@@](CCN1Cc2cc(C#Cc3ccc(C4(N)COC4)cc3)cn2C1=O)(C(=O)NO)S(C)(=O)=O` [Example 69, (R)-4-(6-((4-(3-aminooxetan-3-yl)phenyl)ethynyl)-3-oxo-1H-pyrrolo[1,2-c]imidazol-2(3H)-yl)-N-hydroxy-2-methyl-2-(methylsulfonyl)butanamide], for which the MIC in the assay with P. aeruginosa ATCC27853 amounted to 2 µg/mL (≈ 4.11 µM); in the assay with E. coli ATCC25922, 0.5 µg/mL (≈ 1.03 µM); in the assay with K. pneumoniae A-651, 2 µg/mL (≈ 4.11 µM).

(Values after patent US10106544B2, “1,2-dihydro-3H-pyrrolo[1,2-C]imidazol-3-one derivatives and their use as antibacterial agents” (priority 2014, dated 2018).)
